# Laboratory results taken from US20040022870A1, “Immunogenic TLP composition” (priority 1996, published 2004).
# Where a SMILES comes first, the peptide text is derived from it.
# How the values were obtained:
# [1] = system: TLP antigen on primary NSCLC culture cells; experiment: Induction of TLP antigen expression on tumor cells by chemotherapy in vitro; type: cell-based, human; conditions: 10:g/ml for 48 hours; for TLP status of TLP-positive cell population after treatment: etoposide and cis-platinum
# Description: The cells were processed fresh and after preparation of primary cultures (complete RPMI 1640 culture medium with the addition of FCS 10%).
# Along with variation in TLP, other possible phenotype modifications (IL-2 rec (interleukin receptors), HLA-Dr (human leukocyte antigen), CD16 (lymphocyte sub-populations), etc.) induced by treatment with single or combined agents (chemotherapy, cytokines) were also studied.
# In the case of TLP, freshly isolated tumor cells were obtained from a surgical NSCLC patient. After plating for 24 h and separation of fibroblasts, cells were resuspended for immunohistochemistry and cytofluorimetric assay. Briefly, CSH 419 antiserum was labeled with PE conjugated anti-rabbit IgG and incubated with the cells.
# The freeing of TLP in the culture supernatant was checked using the ELISA test.
# [2] = system: cytotoxic CD8 lymphocytes; experiment: Stimulation of cytotoxic CD8 lymphocytes by synthetic polypeptide; type: cell-based, human; conditions: only in patients suffering from NSCLC neoplasia
Structure (SMILES),TLP status of TLP-negative cell population after treatment [1],TLP status of TLP-positive cell population after treatment [1],stimulation of cytotoxic CD8 lymphocytes [2]
N.N.[Cl][Pt][Cl] [cis-platinum],became TLP-positive,remained TLP positive,
"CC[C@H](C)[C@H](NC(=O)[C@H](CO)NC(=O)[C@H](C)NC(=O)[C@H](CCC(=O)O)NC(=O)[C@H](CCCCN)NC(=O)[C@H](CC(N)=O)NC(=O)[C@@H](NC(=O)[C@@H](N)CCCNC(=N)N)[C@@H](C)O)C(=O)O [SEQ ID NO: 1, ArgThrAsnLysGluAlaSerIle] (H-RTNKEASI-OH; N-terminus and C-terminus assumed)",,,specific stimulation of the cytotoxic CD8 lymphocytes
COc1cc([C@@H]2c3cc4c(cc3[C@@H](O[C@@H]3O[C@@H]5CO[C@@H](C)O[C@H]5[C@H](O)[C@H]3O)[C@H]3COC(=O)[C@H]23)OCO4)cc(OC)c1O [etoposide],became TLP-positive,remained TLP positive,
